Laboratory results published in PMC5052559, “A fragment-based approach applied to a highly flexible target: Insights and challenges towards the inhibition of HSP70 isoforms” (Scientific Reports, 2016).

How the values were obtained:
[1] = target: T1, S275F HSC70-NBD (Homo sapiens, UniProt P11142, S275F); assay: SPR binding to S275F HSC70-NBD mutant
T1 construct: WT HSPA8 (HSC70) residues 1 to 381; GST (N, cleaved yes); made in house; host or cells: E. coli BL21-AI (expressed as described for FL-HSP72)
Protocol: SPR experiments were carried out using a Biacore T200 (GE Healthcare) at 25 °C. Amine coupling chemistry was used to immobilise the HSC70 NBD domain and S275W, S275F and S275A HSC70-NBD mutant proteins on a carboxymethyl-5′-dextran (CM5) sensor chip. The chip’s surface was activated with a 10 min injection of a 1:1 mixture of 100 mM N-hydroxysuccinimide and 400 mM 1-ethyl-3-(3-dimethylaminopropyl)-carbodiimide. The HSC70 proteins (70 μg/mL in 10 mM sodium acetate, 750 μM ADP, pH 5.0) were immobilised on the surface over a 10 min injection period. The remaining activated groups on the surface were blocked with a 7 min injection of 1 M ethanolamine at pH 8.5. For all the above procedures the flow rate was maintained at 10 μL/min and a 1x phosphate buffered saline running buffer (PBS running buffer: 10 mM NaHPO4/NaH2PO4 pH 7.4, 2.7 mM KCl, 137 mM NaCl) was used during immobilisation. Approximately ~13,000 response units (RU) of protein could be routinely captured on the CM5 chip on flow cells two to four. Flow cell one was left unmodified as the reference surface. Our in-house fragment library of 1962 fragments at a stock concentration of 100 mM in 100% (v/v) was screened. SPR screening plates were prepared by dispensing of 0.1 μL of each fragment in 384-well polypropylene V-bottomed plates (Greiner) using an ECHO 550 acoustic liquid dispenser (Labcyte) followed by addition of fresh DMSO and running buffer to give a final fragment concentration of 125 μM in 5% (v/v) DMSO in an assay volume of 80 μL.
The full fragment screen was carried out against freshly immobilised WT-HSC70 NBD and the S275W and S275F HSC70-NBD mutants, using the same experimental setting as for the clean screen and a final fragment concentration of 125 μM. Injections of running buffer and of 125 μM adenosine, which was used as a positive control to monitor the health of the protein, were carried out at intervals of 35 cycles throughout the screen. In addition, a DMSO correction curve, prepared as described in the GE manual, was used to correct the effects of the solvent on signal intensity. Raw SPR data from the single point screen was processed and analysed using Pipeline Pilot version 8.0.1.500[37]. Firstly, the reported binding level for each fragment was corrected by subtraction of the buffer blank. Secondly, the values were corrected for the molecular weight of each fragment and the binding was normalised to the binding level observed for the closest adenosine control. […] However, fragments with a binding level exceeding two times the theoretical Rmax were excluded, as we considered this an indication of superstoichiometric binding. Finally, fragments showing preferred binding to wild-type HSC70-NBD versus the HSC70-NBD mutants with a blocked adenine sub pocket were identified by plotting the binding levels of the fragments to wild-type HSC70-NBD against the binding levels of the respective mutant HSC70-NBD variants and added to the primary hit list. In total this procedure yielded 54 initial fragment hits.

[2] = target: T2, WT HSC70-NBD (Homo sapiens, UniProt P11142); assay: SPR binding to wild-type HSC70-NBD; details: for Kd / Kd WT HSC70-NBD: 25 °C; for LE (ligand efficiency): calculated using the SPR Kd on WT HSC70-NBD; for increase in affinity compared to parent fragment: SPR Kd, 23 vs 10, 24 vs 19
T2 construct: WT HSPA8 (HSC70) residues 1 to 381; GST (N, cleaved yes); made in house; host or cells: E. coli BL21-AI (expressed as described for FL-HSP72)
Protocol: (§1) SPR experiments were carried out using a Biacore T200 (GE Healthcare) at 25 °C. Amine coupling chemistry was used to immobilise the HSC70 NBD domain and S275W, S275F and S275A HSC70-NBD mutant proteins on a carboxymethyl-5′-dextran (CM5) sensor chip. The chip’s surface was activated with a 10 min injection of a 1:1 mixture of 100 mM N-hydroxysuccinimide and 400 mM 1-ethyl-3-(3-dimethylaminopropyl)-carbodiimide. […] The remaining activated groups on the surface were blocked with a 7 min injection of 1 M ethanolamine at pH 8.5. […] Flow cell one was left unmodified as the reference surface.
(§2) In addition, a DMSO correction curve, prepared as described in the GE manual, was used to correct the effects of the solvent on signal intensity. Raw SPR data from the single point screen was processed and analysed using Pipeline Pilot version 8.0.1.500[37]. Firstly, the reported binding level for each fragment was corrected by subtraction of the buffer blank.
(§3) The initial fragment hits were further investigated in a three-point concentration-response experiment against freshly immobilised WT HSC70-NBD and the S275W HSC70-NBD mutants using the same experimental protocol as for the primary screen. Compound dilutions of 50, 100 and 200 μM were generated using the ECHO 550.

[3] = target: T3, HSC70-NBD S275A mutant (Homo sapiens, UniProt P11142, S275A); assay: SPR binding to S275A HSC70-NBD mutant; details: n = 3
T3 construct: WT HSPA8 (HSC70) residues 1 to 381; GST (N, cleaved yes); made in house; host or cells: E. coli BL21-AI (expressed as described for FL-HSP72)
Protocol: SPR experiments were carried out using a Biacore T200 (GE Healthcare) at 25 °C. Amine coupling chemistry was used to immobilise the HSC70 NBD domain and […], […] and […] HSC70-NBD mutant proteins on a carboxymethyl-5'-dextran (CM5) sensor chip. […] The remaining activated groups on the surface were blocked with a 7 min injection of 1 M ethanolamine at pH 8.5. For all the above procedures the flow rate was maintained at 10 μL/min and a 1x phosphate buffered saline running buffer (PBS running buffer: 10 mM NaHPO4/NaH2PO4 pH 7.4, 2.7 mM KCl, 137 mM NaCl) was used during immobilisation. Approximately ~13,000 response units (RU) of protein could be routinely captured on the CM5 chip on flow cells two to four. Flow cell one was left unmodified as the reference surface. Our in-house fragment library of 1962 fragments at a stock concentration of 100 mM in 100% (v/v) was screened. SPR screening plates were prepared by dispensing of 0.1 μL of each fragment in 384-well polypropylene V-bottomed plates (Greiner) using an ECHO 550 acoustic liquid dispenser (Labcyte) followed by addition of fresh DMSO and running buffer to give a final fragment concentration of 125 μM in 5% (v/v) DMSO in an assay volume of 80 μL. The initial fragment hits were further investigated in a three-point concentration-response experiment against freshly immobilised WT HSC70-NBD and the […] HSC70-NBD mutants using the same experimental protocol as for the primary screen. Compound dilutions of 50, 100 and 200 μM were generated using the ECHO 550. A confirmed hit was defined as a fragment giving greater than 10% response compared to adenosine and these were prioritised on the basis of their concentration response, ratio of experimental and theoretical Rmax, and shape of the sensorgrams, and expected fast on/fast off binding kinetics. […] HSC70-NBD mutant. […] Nucleotides were dissolved in double distilled water to give 10 mM stock solutions, then diluted 40X with DMSO and tested using a concentration range between 0.0625 μM and 2.5 μM.

[4] = target: T4, S275W HSC70-NBD (Homo sapiens, UniProt P11142, S275W); assay: SPR binding to S275W HSC70-NBD mutant
T4 construct: WT HSPA8 (HSC70) residues 1 to 381; GST (N, cleaved yes); made in house; host or cells: E. coli BL21-AI (expressed as described for FL-HSP72)
Protocol: as §1, §2, §3

[5] = SPR, mean ± SD, No binding = binding level ≤10RU at 1mM
[6] = SPR, mean ± standard deviation or standard error, triplicate unless marked duplicate/single

T2 sequence (P11142 1-381): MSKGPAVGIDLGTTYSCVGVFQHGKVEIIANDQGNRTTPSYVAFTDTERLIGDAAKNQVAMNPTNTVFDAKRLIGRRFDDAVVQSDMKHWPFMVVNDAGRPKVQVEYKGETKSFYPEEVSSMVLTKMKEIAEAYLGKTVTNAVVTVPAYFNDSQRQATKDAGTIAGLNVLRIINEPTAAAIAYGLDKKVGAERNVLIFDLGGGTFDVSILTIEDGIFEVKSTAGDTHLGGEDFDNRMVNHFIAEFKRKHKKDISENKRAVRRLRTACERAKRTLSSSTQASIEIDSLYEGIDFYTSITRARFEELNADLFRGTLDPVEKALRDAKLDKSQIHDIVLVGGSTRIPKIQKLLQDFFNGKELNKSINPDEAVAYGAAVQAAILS
T4 sequence (P11142 1-381 S275W): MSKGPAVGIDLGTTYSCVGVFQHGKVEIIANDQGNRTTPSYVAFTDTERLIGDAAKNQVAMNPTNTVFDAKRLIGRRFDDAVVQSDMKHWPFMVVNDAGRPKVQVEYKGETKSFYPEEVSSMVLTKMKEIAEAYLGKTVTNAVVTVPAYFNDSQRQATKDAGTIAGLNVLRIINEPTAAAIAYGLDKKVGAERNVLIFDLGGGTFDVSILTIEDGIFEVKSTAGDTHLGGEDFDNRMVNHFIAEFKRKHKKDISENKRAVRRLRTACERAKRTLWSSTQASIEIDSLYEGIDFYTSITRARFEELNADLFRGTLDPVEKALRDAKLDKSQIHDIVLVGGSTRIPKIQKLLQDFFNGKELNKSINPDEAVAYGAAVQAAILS
T1 sequence (P11142 1-381 S275F): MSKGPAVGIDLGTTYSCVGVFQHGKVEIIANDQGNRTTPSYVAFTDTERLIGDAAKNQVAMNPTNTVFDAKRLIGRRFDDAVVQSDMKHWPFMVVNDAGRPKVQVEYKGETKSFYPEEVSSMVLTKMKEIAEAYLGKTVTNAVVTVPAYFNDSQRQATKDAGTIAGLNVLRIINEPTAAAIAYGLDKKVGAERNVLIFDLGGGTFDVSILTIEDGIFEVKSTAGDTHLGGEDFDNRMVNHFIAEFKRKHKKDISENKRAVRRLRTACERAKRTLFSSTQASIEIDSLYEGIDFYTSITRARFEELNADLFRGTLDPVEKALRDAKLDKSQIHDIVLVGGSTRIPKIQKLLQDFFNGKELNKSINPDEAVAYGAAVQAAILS
T3 sequence (P11142 1-381 S275A): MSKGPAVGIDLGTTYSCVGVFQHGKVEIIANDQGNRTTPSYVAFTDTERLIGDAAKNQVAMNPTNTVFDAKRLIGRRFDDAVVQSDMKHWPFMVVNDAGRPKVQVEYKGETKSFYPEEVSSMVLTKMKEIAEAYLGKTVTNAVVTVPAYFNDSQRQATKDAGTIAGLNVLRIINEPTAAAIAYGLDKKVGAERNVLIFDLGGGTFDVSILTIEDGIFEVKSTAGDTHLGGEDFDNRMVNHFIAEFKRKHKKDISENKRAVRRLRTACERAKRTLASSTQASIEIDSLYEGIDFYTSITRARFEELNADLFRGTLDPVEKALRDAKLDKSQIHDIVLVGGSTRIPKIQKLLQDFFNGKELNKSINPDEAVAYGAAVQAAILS

Row | SMILES | LE (ligand efficiency) [2] | Kd [2, 6] [µM] | also measured
1 | Nc1ncnc2c1ncn2[C@@H]1O[C@H](COP(=O)(O)OP(=O)(O)O)[C@@H](O)[C@H]1O [ADP, reference compound] | 0.31 |  | binding to S275F HSC70-NBD mutant (in words) [1]: abolished binding; Kd [2, 5]: 0.71 ± 0.32 µM; Kd [3]: 5.6 ± 2.4 µM; binding to S275W HSC70-NBD mutant (in words) [4]: abolished binding
2 | Nc1ncnc2c1ncn2[C@@H]1O[C@H](COP(=O)(O)OP(=O)(O)OP(=O)(O)O)[C@@H](O)[C@H]1O [ATP, reference compound] | 0.29 |  | Kd [2, 5]: 0.33 µM; Kd [3]: 2.1 µM
3 | Nc1ccn([C@@H]2O[C@H](COP(=O)(O)OP(=O)(O)O)[C@@H](O)[C@H]2O)c(=O)n1 [CDP, reference compound] |  |  | Kd WT HSC70-NBD [2, 5]: No binding
4 | CN1N=C(N)c2c[nH]c3ncnc1c23 [Compound 3] |  | 3500 ± 600 | 
5 | Nc1ncnc2c1nc(N)n2[C@@H]1O[C@H](CO)[C@@H](O)[C@H]1O [Compound 4, 8-aminoadenosine, reference compound] | 0.35 |  | Kd [2, 5]: 8 µM
6 | Nc1ncnc2[nH]cnc12 [Compound 5, adenine, reference compound] |  |  | Kd WT HSC70-NBD [2, 5]: No binding
7 | Nc1nc2ncnc(N)c2[nH]1 [Compound 6, 8-aminoadenine, reference compound] | 0.34 |  | Kd [2, 5]: 2100 µM
8 | O=c1[nH]cnc2c1oc1ccccc12 [Compound 7] | 0.27 | 1700 ± 600 | binding to S275F HSC70-NBD mutant (in words) [1]: reduced binding and a low degree of saturation; binding to S275W HSC70-NBD mutant (in words) [4]: reduced binding and a low degree of saturation
9 | Cc1ccc2ncnc(N)c2c1 [Compound 8] | 0.33 | 1400 ± 100 | binding to S275F HSC70-NBD mutant (in words) [1]: reduced binding and a low degree of saturation; binding to S275W HSC70-NBD mutant (in words) [4]: reduced binding and a low degree of saturation
10 | Nc1ncnc2ccccc12 [Compound 10] |  | 2100 | 
11 | Cc1nc(N)c2ccccc2n1 [Compound 11] |  |  | binding to WT HSC70-NBD (in words) ([2]; SPR): no detectable affinity
12 | Cc1cccc2ncnc(N)c12 [Compound 12] |  | 12000 | 
13 | Cc1ccc2c(N)ncnc2c1 [Compound 13, 7-methyl 4-aminoquinazoline] |  | 800 | 
14 | Cc1cccc2c(N)ncnc12 [Compound 14] |  | 2900 | 
15 | COc1cccc2ncnc(N)c12 [Compound 15] |  | 830 | 
16 | COc1ccc2ncnc(N)c2c1 [Compound 16, 6-methoxy 4-aminoquinazoline] |  | 1000 | 
17 | COc1ccc2c(N)ncnc2c1 [Compound 17] |  | 850 | 
18 | COc1cccc2c(N)ncnc12 [Compound 18] |  | 2000 | 
19 | COc1cc2ncnc(N)c2cc1OC [Compound 19] |  | 830 | 
20 | CNc1ncnc2ccccc12 [Compound 20] |  | 4800 ± 1100 | 
21 | OC[C@H]1C[C@@H](Nc2ncnc3ccccc23)[C@H](O)[C@@H]1O [Compound 23] |  |  | increase in affinity compared to parent fragment [2]: 7 fold; Kd [2, 5]: 310 ± 100 µM
22 | COc1cc2ncnc(N[C@@H]3C[C@H](CO)[C@@H](O)[C@H]3O)c2cc1OC [Compound 24] |  | 250 | increase in affinity compared to parent fragment [2]: three-fold
23 | COc1cccc2ncnc(N[C@@H]3C[C@H](CO)[C@@H](O)[C@H]3O)c12 [Compound 26] |  | 1040 | 
24 | OC[C@H]1C[C@@H](Nc2ncnc3cccc(OCc4ccc(Cl)c(Cl)c4)c23)[C@H](O)[C@@H]1O [Compound 27] | 0.14 | 850 | Kd ([4]; single measurement): 5000 µM
25 | OC[C@H]1C[C@@H](Nc2ncnc3cccc(OCc4ccccc4)c23)[C@H](O)[C@@H]1O [Compound 28] | 0.17 | 370 | Kd S275W HSC70-NBD ([4]; single measurement): No binding
26 | N#Cc1ccc(COC[C@H]2C[C@@H](Nc3ncnc4cccc(OCc5ccccc5)c34)[C@H](O)[C@@H]2O)cc1 [Compound 29] | 0.10 | 2000 | Kd ([4]; single measurement): 2000 µM
27 | Nc1nc2c(ncn2[C@@H]2O[C@H](COP(=O)(O)OP(=O)(O)O)[C@@H](O)[C@H]2O)c(=O)[nH]1 [GDP, reference compound] | 0.18 |  | Kd [2, 5]: 223 µM
28 | Cc1cn([C@H]2C[C@H](O)[C@@H](COP(=O)(O)OP(=O)(O)O)O2)c(=O)[nH]c1=O [TDP, reference compound] |  |  | Kd WT HSC70-NBD [2, 5]: No binding
29 | O=c1ccn([C@@H]2O[C@H](COP(=O)(O)OP(=O)(O)O)[C@@H](O)[C@H]2O)c(=O)[nH]1 [UDP, reference compound] |  |  | Kd WT HSC70-NBD [2, 5]: No binding
